Measured values taken from patent US8993542B2, “Methods of treating viral infections” (priority 2008, dated 2015).

Columns and labels:
HIV = test: microbe, parasite or virus in culture; assay type: cell-based
HIV-1IIIB = test: Two-drug combination antiviral assay in CEM cells (CPE), MacSynergy II; assay type: cell-based; conditions: for Antagonism Volume, Result 1 / Antagonism Volume, Result 2 / Antagonism Volume, Result 3 / Mean Antagonism Volume (n = 3) / Mean Synergy Volume (n = 3) / Synergy Volume, Result 1 / Synergy Volume, Result 2 / Synergy Volume, Result 3: in combination with CMX157, CEM-SS cells, 95% confidence; for Interpretation of Antiviral Results (MacSynergy): two-drug combination (with CMX157; control d4T/RBV), CEM-SS cells

## Nc1ccn([C@@H]2CS[C@H](CO)O2)c(=O)n1 [3TC, (2R, 5S, cis)-4-amino-1-(2-hydroxymethyl-1,3-oxathiolan-5-yl)-(1H)-pyrimidin-2-one]
HIV; Human immunodeficiency virus 1, PANEL 1, WT
  IC50: 3.24 µM
HIV; Human immunodeficiency virus 1, PANEL 2, WT
  IC50: 4.44 µM
HIV; Human immunodeficiency virus 1, PANEL 3, 6 TAMs, no 184
  IC50: 13.9 µM
HIV; Human immunodeficiency virus 1, PANEL 6, 6 TAMs + 184
  IC50: > 300 µM
HIV; Human immunodeficiency virus 1, PANEL 7, 184V
  IC50: > 300 µM
HIV; Human immunodeficiency virus 1, PANEL 9, 69ins, no 184
  IC50: 45.9 µM
HIV; Human immunodeficiency virus 1, PANEL 12, 69ins + 184
  IC50: > 300 µM
HIV; Human immunodeficiency virus 1, PANEL 14, 65R, no 184
  IC50: 70.8 µM
HIV; Human immunodeficiency virus 1, PANEL 15, 65R + 184V
  IC50: > 300 µM
HIV; Human immunodeficiency virus 1, PANEL 17, L74V
  IC50: 6.98 µM
HIV; Human immunodeficiency virus 1, PANEL 19, L74V + M184V
  IC50: > 300 µM
HIV; Human immunodeficiency virus 1, PANEL 26, 151M, no 184
  IC50: 89.6 µM
HIV; Human immunodeficiency virus 1, PANEL 28, 151M + 184
  IC50: > 300 µM
HIV; Human immunodeficiency virus 1, PANEL 29, L74V − SDM
  IC50: 6.1 µM
HIV; Human immunodeficiency virus 1, PANEL 30, M184V − SDM
  IC50: > 300 µM
HIV; Human immunodeficiency virus 1, PANEL 31, K65R − SDM
  IC50: 43.3 µM
HIV; Human immunodeficiency virus 1, PANEL 33, T215Y
  IC50: 6.12 µM
HIV; Human immunodeficiency virus 1, PANEL 34, T215Y + M184V
  IC50: > 300 µM
HIV; Human immunodeficiency virus 1, PANEL 35, M41L + T215Y
  IC50: 7.55 µM
HIV; Human immunodeficiency virus 1, PANEL 37, M41L + T215Y + M184V
  IC50: > 300 µM
HIV; Human immunodeficiency virus 1, PANEL 38, M41L + L210W + T215Y
  IC50: 10.3 µM
HIV; Human immunodeficiency virus 1, PANEL 39, M41L + L210W + T215Y
  IC50: 5.89 µM
HIV; Human immunodeficiency virus 1, PANEL 40, M41L + L210W + T215Y + M184V
  IC50: > 300 µM
HIV; Human immunodeficiency virus 1, PANEL 41, M41L + L210W + T215Y + M184V
  IC50: > 300 µM
HIV; Human immunodeficiency virus 1, PANEL 42, D67N + K70R
  IC50: 8.07 µM
HIV; Human immunodeficiency virus 1, PANEL 44, D67N + K70R + T215F + K219E + M184V
  IC50: > 300 µM
HIV; Human immunodeficiency virus 1, PANEL 45, L210W + T215Y
  IC50: 7.26 µM
HIV; Human immunodeficiency virus 1, PANEL 46, D67N + K70E
  IC50: 10.8 µM
HIV; Human immunodeficiency virus 1, PANEL 47, D67N + K70E + M184V
  IC50: > 300 µM
HIV; Human immunodeficiency virus 1, PANEL 48, K70E + M184V
  IC50: > 300 µM

## CC(C)CN(C[C@@H](O)[C@H](Cc1ccccc1)NC(=O)O[C@H]1CCOC1)S(=O)(=O)c1ccc(N)cc1 [Amprenavir (APV), amprenavir]
HIV-1IIIB
  Antagonism Volume, Result 1: 0 nM^2 %, μM^2 % or nMμM %
  Antagonism Volume, Result 2: 0 nM^2 %, μM^2 % or nMμM %
  Antagonism Volume, Result 3: 0 nM^2 %, μM^2 % or nMμM %
  Mean Antagonism Volume (n = 3): 0 nM^2 %, μM^2 % or nMμM %
  Mean Synergy Volume (n = 3): 51.4 nM^2 %, μM^2 % or nMμM %
  Synergy Volume, Result 1: 104 nM^2 %, μM^2 % or nMμM %
  Synergy Volume, Result 2: 43.1 nM^2 %, μM^2 % or nMμM %
  Synergy Volume, Result 3: 7.31 nM^2 %, μM^2 % or nMμM %
  Interpretation of Antiviral Results (MacSynergy): slightly synergistic

## COC(=O)N[C@H](C(=O)N[C@@H](Cc1ccccc1)[C@@H](O)CN(Cc1ccc(-c2ccccn2)cc1)NC(=O)[C@@H](NC(=O)OC)C(C)(C)C)C(C)(C)C [Atazanavir (ATV), atazanavir]
HIV-1IIIB
  Interpretation of Antiviral Results (MacSynergy): slightly synergistic

## CC(C)CN(C[C@@H](O)[C@H](Cc1ccccc1)NC(=O)O[C@H]1CO[C@H]2OCC[C@H]21)S(=O)(=O)c1ccc(N)cc1 [Darunavir (DRV), darunavir]
HIV-1IIIB
  Antagonism Volume, Result 1: 0 nM^2 %, μM^2 % or nMμM %
  Antagonism Volume, Result 2: −2.31 nM^2 %, μM^2 % or nMμM %
  Antagonism Volume, Result 3: 0 nM^2 %, μM^2 % or nMμM %
  Mean Antagonism Volume (n = 3): −0.54 nM^2 %, μM^2 % or nMμM %
  Mean Synergy Volume (n = 3): 43.2 nM^2 %, μM^2 % or nMμM %
  Synergy Volume, Result 1: 109 nM^2 %, μM^2 % or nMμM %
  Synergy Volume, Result 2: 11.5 nM^2 %, μM^2 % or nMμM %
  Synergy Volume, Result 3: 9.48 nM^2 %, μM^2 % or nMμM %

## CC(C)Nc1cccnc1N1CCN(C(=O)c2cc3cc(NS(C)(=O)=O)ccc3[nH]2)CC1 [Delavirdine (DLV), delavirdine]
HIV-1IIIB
  Antagonism Volume, Result 1: 0 nM^2 %, μM^2 % or nMμM %
  Antagonism Volume, Result 2: 0 nM^2 %, μM^2 % or nMμM %
  Antagonism Volume, Result 3: −2.58 nM^2 %, μM^2 % or nMμM %
  Mean Antagonism Volume (n = 3): 0 nM^2 %, μM^2 % or nMμM %
  Mean Synergy Volume (n = 3): 72.9 nM^2 %, μM^2 % or nMμM %
  Synergy Volume, Result 1: 152 nM^2 %, μM^2 % or nMμM %
  Synergy Volume, Result 2: 68.4 nM^2 %, μM^2 % or nMμM %
  Synergy Volume, Result 3: 1.01 nM^2 %, μM^2 % or nMμM %
  Interpretation of Antiviral Results (MacSynergy): slightly synergistic
